Consider four compounds from article PMC4391872, “Direct Binding of Ledipasvir to HCV NS5A: Mechanism of Resistance to an HCV Antiviral Agent” (PLoS ONE, 2015).

Assay [1] deals with T1, NS5A-6HIS (full length NS5A, genotype 1b, Con1) (Hepatitis C virus (isolate Con1), UniProt Q9WMX2).
T1 construct: mature NS5A cut from HCV genome polyprotein; full length residues 1-447 with N-terminal amphipathic helix, C-terminal 6His tag kept; Sf9 baculovirus, C12E8 solubilised, phosphorylated
T1 sequence (Q9WMX2 1973-2419): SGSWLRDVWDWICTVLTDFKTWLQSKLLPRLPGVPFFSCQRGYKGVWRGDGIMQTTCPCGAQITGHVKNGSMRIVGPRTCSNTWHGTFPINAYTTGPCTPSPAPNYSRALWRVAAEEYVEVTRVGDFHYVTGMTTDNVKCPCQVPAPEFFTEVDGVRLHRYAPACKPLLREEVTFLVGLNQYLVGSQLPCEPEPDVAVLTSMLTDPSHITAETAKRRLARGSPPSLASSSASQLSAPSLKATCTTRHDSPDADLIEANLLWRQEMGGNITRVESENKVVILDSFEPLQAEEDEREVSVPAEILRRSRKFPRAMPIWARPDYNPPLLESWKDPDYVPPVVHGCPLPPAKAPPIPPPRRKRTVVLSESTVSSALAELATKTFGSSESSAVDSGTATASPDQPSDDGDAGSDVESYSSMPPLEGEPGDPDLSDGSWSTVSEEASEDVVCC
Briefly: competition of 3H-LDV binding, Ni-NTA capture.

In assay [2] the target is T1, NS5A-6HIS (full length NS5A, genotype 1b, Con1). Briefly: competition of 3H-LDV binding, Ni-NTA capture. The protocol: competition of 3H-LDV binding, Ni-NTA capture on NS5A-6HIS (full length NS5A, genotype 1b, Con1) | Ki was calculated using the Cheng-Prusoff equation
This is another data set of the same source.

For assay [3] the target is unchanged. The assay is described as follows: radioligand saturation binding, Ni-NTA capture.
For assay [4], the target named is NS5A-Y93H-6HIS (Y93H mutant of full length NS5A, genotype 1b, Con1, with C-terminal His tag) (Hepatitis C virus genotype 1b, Con1). Briefly: AUC; sedimentation velocity (42,000 rpm, 3.3 and 6.6 uM) and equilibrium, 20 C, protein in C12E8 micelles, 25 mM Tris pH 7.5, 150 mM NaCl, 0.5 mM TCEP, 0.02% C12E8, 21.1% D2O (density matched to the detergent); self-association.

Like-named read-outs stand apart in the source and are kept apart here. Bounds are passed on as bounds.

Consider `O=C1N[C@H]2[C@H](CS[C@H]2CCCCC(=O)N2CCC[C@H]2C(=O)Nc2ccc(/C=C/c3ccc(NC(=O)[C@@H]4CCCN4C(=O)Cc4ccccc4)cc3)cc2)N1` [BMS-Biotin], for which the IC50 in assay [1] (read-out: no competition up to 100 μM) is more than 100 µM.
As usually defined, the Ki is the equilibrium dissociation constant of an inhibitor or competing ligand from its target. A high value points to weaker binding. Compound `COC(=O)N[C@H](C(=O)N1CCC[C@H]1c1nc(-c2ccc(-c3ccc(-c4c[nH]c([C@@H]5CCCN5C(=O)[C@@H](NC(=O)OC)C(C)C)n4)cc3)cc2)c[nH]1)C(C)C` [daclatasvir] had a Ki in assay [2] of 0.499 ± 0.0683 µM. Moreover, the IC50 in assay [1] (read-out: IC50) amounted to 0.753 µM.
One may read the Kd as the constant that tells how readily two partners part at equilibrium. The compound `COC(=O)N[C@H](C(=O)N1CC2(CC2)C[C@H]1c1ncc(-c2ccc3c(c2)C(F)(F)c2cc(-c4ccc5nc([C@@H]6[C@H]7CC[C@H](C7)N6C(=O)[C@@H](NC(=O)OC)C(C)C)[nH]c5c4)ccc2-3)[nH]1)C(C)C` [ledipasvir] showed a Kd in assay [3] of 0.0589 ± 0.0066 µM. The compound also displayed a Ki in assay [2] of 0.0987 ± 0.0102 µM. Further, the IC50 in assay [1] (read-out: IC50) is 0.149 µM.
Turning to “NS5A-Y93H-6HIS (Y93H mutant of full length NS5A, genotype 1b, Con1, with C-terminal His tag) (natural protein)”, in assay [4], the percent dimers amounted to 3% and the percent higher order oligomers was 7%.
